“Also recorded” adds a separate entry of the source.
Key:
HCA-7 cells [1] = experiment: Differential gene expression after NS-398 treatment (SSH, differential screening, Northern blotting); format: cell-based
Procedure: Cell culture. The HCA-7 cells, which are derived from a rectal carcinoma, were kindly provided by Dr. Susan Kirkland (ICRF, London, UK). Cells were cultured at 37° C. with 5% CO2 in McCoy's 5A medium containing penicillin, streptomycin, 10% FBS (Life Technologies, Inc., Grand Island, N.Y.). NS-398 and nimesulide (Cayman chemicals, Ann Arbor, Mich.), sulindac sulfide (Merck & Co., Rahway, N.J.) and SC-58125 (G.D. Searle Co., St. Louis, Mo.) were dissolved in DMSO prior to addition to cell culture medium. Experimental controls were treated with 0.1% DMSO.
mRNA isolation. Total cellular RNA was isolated using Tri-Reagent (Molecular Research Center, Inc., Cincinnati, Ohio) and polyadenylated RNA was isolated using a mRNA Purification Kit (Amersham Pharmacia Biotech, Inc., Piscataway, N.J.).
Suppression subtractive hybridization. SSH was performed with the PCR-Select™ cDNA Subtraction Kit (Clontech Laboratories Inc., Palo Alto, Calif.) as described by the manufacturer except for slight modifications of the PCR and hybridization conditions. Starting material consisted of 2 μg of mRNA from NS-398 treated HCA-7 cells and 2 μg of mRNA from control cells. After synthesis of the first and second cDNA strands, the cDNA was digested with Rsa I to obtain shorter, blunt-ended molecules. Then ligation of two different adapters to the cDNA fragments was performed separately. The adapter sequences were as follows: 5′-[…]-3′ (adapter 1-SEQ ID NO: 52) and 5′-[…]-3′ (adapter 2R-SEQ ID NO: 53). For the first round hybridization, the mixture of driver and tester cDNA were denatured at 98° C. for 1.5 min and then maintained at 68° C. for ˜10 h. For the second round hybridization, driver cDNA was denatured at 98° C. for 1.5 min and then added to the mixture of the two previous hybridization and allowed to incubate at 68° C. for ˜18 h.
After two rounds of hybridization, two rounds of PCR were performed to amplify the specific, differentially expressed cDNA fragments. All PCR reactions were performed using a PTC-100 thermal cycler (MJ Research, Inc. Watertown, Mass.). The primer used in first round is 5′-[…]-3′ (primer 1-SEQ ID NO: 54) and the primers used in second round were 5′-[…]-3′ (nested primer 1-SEQ ID NO: 55) and 5′-[…]-3′ (nested primer 2R -SEQ ID NO: 56). Cycling parameters are as follows: for the first round, 27 cycles of 94° C. for 30 s, 64° C. for 30 s and 71° C. for 1.5 min; for the second round, 15 cycles of 94° C. for 30 s, 68° C. for 30 s and 72° C. for 1.5 min.
To evaluate subtractive efficiency, the same amount of subtracted and unsubtracted secondary PCR products were applied as templates, and GAPDH primers were used to perform PCR. The PCR products were examined in a 2.0% agarose/EtBr gel to detect the abundance of GAPDH. After evaluation of the subtractive efficiency, the subtracted PCR products were cloned directly into the pCR2.1-TOPO vector (InVitrogen, Carlsbad, Calif.). Plates were incubated at 37° C. until small clones were visible and the blue/white staining could be clearly distinguished.
Differential screening. Differential screening was performed by using the PCR-Select™ Differential Screening Kit (Clontech) according to the users manual. After picking the recombinant clones from the subtractive library and identifying them by restriction digestion, the insert was PCR amplified in 20 μl volume reactions using nested PCR primer 1 and 2R. After amplification, 5 μl of the PCR product was denatured with 5 μl of 0.6 N NaOH and then 1.5 μl of each mixture was transferred to a nylon membrane. Each cDNA fragment was arrayed in duplicate in each blot and two identical blots were prepared for hybridization with different probes. The total secondary PCR amplified products from the forward and reverse SSH were used as probes. After washing, the membranes were exposed overnight to Kodak BioMax MR x-ray film (Eastman Kodak Company, Rochester, N.Y.) with and intensifying screen at −70° C.
Northern blotting. […]

HCA-7 cells [2] = experiment: HCA-7 cell growth following treatment; format: cell-based; conditions: following treatment with NS-398
[3] = tested on: different types of cancer cell lines; conditions: cited from earlier work
[4] = tested on: AOM induced colon carcinogenesis; conditions: AOM induced colon carcinogenesis rat model; cited from earlier work
NNK-induced lung cancer = NNK-induced lung cancer model; cited from earlier work
[5] = tested on: human colon carcinoma cells; conditions: cited from earlier work
prostate carcinoma cells = conditions: cited from earlier work
angiogenesis = conditions: cited from earlier work
[6] = cited from earlier work
[7] = cited from earlier work; remark: listed apart in the source
[8] = 100 μM NS-398 for 4 days, down = decreased levels following treatment, -fold decrease
[9] = 100 μM NS-398 for 4 days, up = increased levels following treatment, -fold increase

**Q.** Which results are given for CS(=O)(=O)Nc1ccc([N+](=O)[O-])cc1OC1CCCCC1 [NS-398]?
**A.** Regulation by NS-398: Cyclin K (AF060515) (HCA-7 cells [1]; [8]): down (2.1) fold; Regulation by NS-398: KIAA0101 (D14657) (HCA-7 cells [1]; [8]): down (2.7) fold; Regulation by NS-398: Proliferation associated p100 protein (AF098158) (HCA-7 cells [1]; [8]): down (2.2) fold; Regulation by NS-398: Dynamin 2 (NM_004945) (HCA-7 cells [1]; [9]): up (3.1) fold; Regulation by NS-398: ENH, LIM protein (similar to rat protein kinase C-binding enigma) (NM_006457) (HCA-7 cells [1]; [9]): up (3.0) fold; Regulation by NS-398: FAT tumor suppressor (Drosophila) homolog (NM_005245) (HCA-7 cells [1]; [9]): up (4.4) fold; Regulation by NS-398: LIP.1 (LAR-interacting protein 1b) (U22816) (HCA-7 cells [1]; [9]): up (3.4) fold; Regulation by NS-398: PCDH7 (BH-Pcdh) (AB06757) (HCA-7 cells [1]; [9]): up (26.0) fold; Regulation by NS-398: Pdcd4 (Programmed cell death) (NM_011050) (HCA-7 cells [1]; [9]): up (1.5) fold; Regulation of named genes by NS-398, stated in words (HCA-7 cells [1]; gene named in the value): genes that were down-regulated by NS-398, one was designated as NRG-1; also recorded: Cyclin K was found to be down-regulated; also recorded: Pdcd4, Dynamin 2 and LIP.1 are all up-regulated; also recorded: ENH is a LIM protein whose levels are increased; Inhibition of HCA-7 cell growth (HCA-7 cells [2]): significant inhibition; Effect on tumor growth [3]: suppress tumor growth; Chemopreventive effects [4]: chemopreventive effects; Chemopreventive effects (NNK-induced lung cancer): chemopreventive effects; Induction of apoptosis [5]: induce apoptosis; Induction of apoptosis (prostate carcinoma cells): induce apoptosis; Anti-angiogenic effects (angiogenesis): anti-angiogenic effects

**Q.** Which “Drug absorbed after oral administration” value [6] does the source give for CC1=C(CC(=O)O)c2cc(F)ccc2/C1=C\c1ccc([S+](C)[O-])cc1 (stereo not drawn) [sulindac, (Z)-5-Fluoro-2-methyl-1-((4(methylsulfinyl)phenyl)methylene) 1H-indene-3-acetic acid] here?
**A.** about 90%

**Q.** What about the “Time to peak plasma levels” value ([6]; fasting patients, oral) of the same compound?
**A.** about 2 hours

**Q.** And the “Mild gastrointestinal effects, share of patients” value ([7]; abdominal pain and nausea most frequent)?
**A.** ~20%

**Q.** What about the “Skin rash and pruritus, share of patients” value ([7]; human, in vivo) of the same compound?
**A.** 5%
